# From paper PMC12736120, “First-in-Human Phase I Clinical Trial of SLC-391, a Novel and Selective AXL Inhibitor, in Patients with Advanced Solid Tumours” (Pharmaceuticals, 2025)
# What was measured:
# [1] = test system: multiple solid tumour and haematological tumour models; set-up: method as in PMID 33786587, doi:10.1158/1538-7445.AM2014-2716, doi:10.1158/1538-7445.AM2014-1746, doi:10.1158/1538-7445.AM2015-5393, doi:10.1158/1538-7445.AM2017-4196; settings: alone or in combination with chemotherapy or immune checkpoint blockade; models including lung cancer, colon cancer, CML, AML; cited from earlier work
# [2] = test system: AXL; settings: stated in the Introduction, no reference given; read-out: IC50 against AXL; cited from earlier work
# [3] = test system: advanced solid tumours; assay: Preliminary efficacy, disease assessment by RECIST 1.1 / mRECIST; type: in vivo, human; settings: for best percent change in target lesion diameter (decrease): one subject
# Method: Disease assessments were performed according to RECIST 1.1 [20, 21] and included imaging and physical examination as appropriate for disease type and location. Disease assessments were completed at screening (within 30 days of C1D1) and every 3 cycles (±7 days) relative to C1D1 until objective disease progression, study drug discontinuation, or withdrawal of informed consent.
structure (smiles),measurement,setting,value
"Nc1ncc(-c2cnn(C3CCNCC3)c2)cc1-c1nnc(CC2CC2)o1 [SLC-391, 3-(5-[cyclopropylmethyl]-1,3,4-oxadiazol-2-yl)-5-(1-[piperidin-4-yl]-1H-pyrazol-4-yl)-pyridin-2-amine]",tumour growth inhibition,[1],results in tumour growth inhibition
same,IC50,[2],9.6 nM
same,rate of stable disease,[3]; 150 mg BID (3/6),50.0%
same,best overall response (BOR) of stable disease,[3]; NSCLC,4/16
same,subjects with stable disease,[3]; RECIST 1.1 or modified RECIST (mesothelioma),12 of 35 subjects
same,clinical benefit rate,"[3]; all subjects (N = 35), monotherapy",34.3%
same,best overall response (BOR) of stable disease,[3]; appendix adenocarcinoma,1/1
same,best overall response (BOR) of stable disease,[3]; head and neck cancer,1/1
same,best overall response (BOR) of stable disease,[3]; mammary adenocarcinoma,1/1
same,best overall response (BOR) of stable disease,[3]; melanoma,1/1
same,best overall response (BOR) of stable disease,[3]; mesothelioma,4/4
same,longest duration of stable disease,[3]; monotherapy,318 days
same,patients with stable disease for more than half a year,"[3]; monotherapy, all stage IV, pretreated",six
same,best percent change in target lesion diameter (decrease),"[3]; 50 mg QD, at cycle 7",26.7%
same,best percent change in target lesion diameter (decrease),"[3]; 110 mg BID, on day 275",22.2%
same,best percent change in target lesion diameter (decrease),"[3]; 150 mg BID, at the end of treatment visit",8.9%
same,best percent change in target lesion diameter (decrease),"[3]; 150 mg QD, at cycle 7",10.7%
